Laboratory results taken from paper PMC8815882, “Screening the pandemic response box identified benzimidazole carbamates, Olorofim and ravuconazole as promising drug candidates for the treatment of eumycetoma” (PLoS Neglected Tropical Diseases, 2022).
“And” between values parts separate entries of the source, which are not always exact repeats. Identical values can stand only once. Like-named read-outs stand apart in the source and are kept apart here.

Tested on: M. mycetomatis genome strain MM55
Assay: CLSI M38-A2 based in vitro susceptibility screening (XTT or resazurin), growth at fixed concentration
Format: cell-based, Madurella mycetomatis
Conditions: for activity at 25 µM / activity at 100 µM / Percent fungal survival at 100 µM: Madurella mycetomatis; for Percent fungal survival at 100 µM: read-out: Percentage survival at 100um, 100 uM A (second replicate column)
[1] = 25 uM, mean of three replicates, read-out: Percentage survival at 25um, 25 uM mean
[2] = 25 uM, replicate A, read-out: Percentage survival at 25um, 25 um A
[3] = 25 uM, replicate B, read-out: Percentage survival at 25um, 25 uM B
[4] = 25 uM, replicate C, read-out: Percentage survival at 25um, 25 uM C
[5] = 100 uM, mean of three replicates, read-out: Percentage survival at 100um, 100 uM mean
[6] = 100 uM, replicate 1, read-out: Percentage survival at 100um, 100 uM A (first replicate column)
[7] = 100 uM, replicate 3, read-out: Percentage survival at 100um, 100 uM A (third replicate column)
[8] = 25 uM, mean of replicates, read-out: Percentage survival at 25um, 25 uM mean
[9] = 100 uM, mean of replicates, read-out: Percentage survival at 100um, 100 uM mean
[10] = 100 uM, first replicate column, read-out: Percentage survival at 100um, 100 uM A
[11] = 100 uM, second replicate column, read-out: Percentage survival at 100um, 100 uM A
[12] = 100 uM, third replicate column, read-out: Percentage survival at 100um, 100 uM A

Compound | activity at 25 µM [1] [%] | activity at 25 µM [2] [%] | activity at 25 µM [3] [%] | activity at 25 µM [4] [%] | activity at 100 µM [5] [%] | activity at 100 µM [6] [%] | Percent fungal survival at 100 µM (100 uM, replicate 2) [%] | activity at 100 µM [7] [%] | activity at 100 µM [10] [%] | activity at 100 µM [11] [%] | activity at 100 µM [12] [%] | further results
CC1(C)C[C@H]1C(=O)N/C(=C\CCCCSC[C@@H](N)C(=O)O)C(=O)O [MMV1613559] |  |  |  |  |  |  |  |  |  |  |  | Percentage survival at 100um, 100 uM A: 93.1771% and 127.204% and 75.2981%; activity at 25 µM (read-out: Percentage survival at 25um, 25 uM B): 95.4%; activity at 25 µM (read-out: Percentage survival at 25um, 25 uM C): 77.8%; activity at 25 µM (read-out: Percentage survival at 25um, 25 uM mean): 92.2%; activity at 25 µM (read-out: Percentage survival at 25um, 25 um A): 103%; activity at 100 µM (read-out: Percentage survival at 100um, 100 uM mean): 98.6%
NC(=O)[C@@H]1CC[C@@H]2CN1C(=O)N2OS(=O)(=O)O [MMV1613560] |  |  |  |  |  |  |  |  |  |  |  | activity at 25 µM (25 uM, mean of three, M. mycetomatis MM55, read-out: Percentage survival at 25um, 25 uM mean): 88.8%; activity at 25 µM (25 uM, replicate A, M. mycetomatis MM55, read-out: Percentage survival at 25um, 25 um A): 94.4%; activity at 25 µM (25 uM, replicate B, M. mycetomatis MM55, read-out: Percentage survival at 25um, 25 uM B): 88.3%; activity at 25 µM (25 uM, replicate C, M. mycetomatis MM55, read-out: Percentage survival at 25um, 25 uM C): 83.7%; activity at 100 µM (100 uM, mean of three, M. mycetomatis MM55, read-out: Percentage survival at 100um, 100 uM mean): 85.1%; activity at 100 µM (100 uM, replicate 1, M. mycetomatis MM55, read-out: Percentage survival at 100um, 100 uM A (first replicate column)): 93.4%; Percent fungal survival at 100 µM (100 uM, replicate 2, M. mycetomatis MM55): 67.9%; activity at 100 µM (100 uM, replicate 3, M. mycetomatis MM55, read-out: Percentage survival at 100um, 100 uM A (third replicate column)): 94.1%
Cc1ncc([N+](=O)[O-])n1CC(O)CN1CCOCC1 (stereo not drawn) [MMV1613562] | 110 | 99.4 | 137 | 94 | 94.6 | 93.7 | 86.5 | 104 |  |  |  | 
COc1cc(Cc2cnc(N)nc2N)c2c(c1OC)OC(C1CC1)C=C2 (stereo not drawn) [MMV1613563] |  | 106 | 107 | 86.9 |  | 93.6 | 93.2 | 87.7 |  |  |  | activity at 25 µM [8]: 99.9%; activity at 100 µM [9]: 91.5%
C=C[C@]1(C)C[C@@H](OC(=O)CS[C@@H]2C[C@H]3CC[C@@H](C2)N3C)[C@]2(C)[C@H](C)CC[C@]3(CCC(=O)[C@H]32)[C@@H](C)[C@@H]1O [MMV1633674] |  | 84.6 | 97.9 | 85.5 |  |  |  |  |  |  |  | activity at 25 µM [8]: 89.3%; activity at 100 µM [9]: 48.4%; activity at 100 µM (100 uM, replicate 1, read-out: Percentage survival at 100um, 100 uM A): -3.26%; activity at 100 µM (100 uM, replicate 2, read-out: Percentage survival at 100um, 100 uM A): 61.3%; activity at 100 µM (100 uM, replicate 3, read-out: Percentage survival at 100um, 100 uM A): 87%
CC(C)c1cc2c(cc1S(=O)(=O)O)[C@@]1(C)CCC[C@@](C)(C(=O)O)[C@@H]1CC2 [MMV1633675] | 79.3 | 73.4 | 82.6 | 81.8 | 82.2 | 91.1 | 74 | 81.5 |  |  |  | 
Nc1nc2c(ncn2[C@@H]2O[C@H](CO)[C@@H](O)[C@H]2F)c(=O)[nH]1 [MMV1633677] | 85.2 | 76.3 | 91.2 | 88.1 | 83.6 |  |  |  | 85.8 | 80.2 | 84.7 | 
CC[C@@]1(O)C(=O)OCc2c1cc1n(c2=O)Cc2cc3c(CN(C)C)c(O)ccc3nc2-1 [MMV1633678] | 101 | 86.9 | 110 | 108 | 89.5 |  |  |  | 94.8 | 86.7 | 86.9 | 
CCc1ccccc1OCCN1CCCCCC1 [MMV1633962] | 60.1 | 47.9 | 69.8 | 62.5 | 61.5 |  |  |  | 61.1 | 62.7 | 60.6 | 
O=C(O)/C=C/C=C/c1cccc(Oc2cc(Cl)cc(Cl)c2)c1 [MMV1633963] |  |  |  |  |  |  |  |  |  |  |  | activity at 25 µM (25 uM, mean of replicates, MM55, read-out: Percentage survival at 25um, 25 uM mean): 44.9%; activity at 25 µM (25 uM, replicate A, MM55, read-out: Percentage survival at 25um, 25 um A): 58.7%; activity at 25 µM (25 uM, replicate B, MM55, read-out: Percentage survival at 25um, 25 uM B): 58.6%; activity at 25 µM (25 uM, replicate C, MM55, read-out: Percentage survival at 25um, 25 uM C): 17.4%; activity at 100 µM (100 uM, mean of replicates, MM55, read-out: Percentage survival at 100um, 100 uM mean): 7.42%; activity at 100 µM (100 uM, replicate 1, MM55, read-out: Percentage survival at 100um, 100 uM A): 7.5%; activity at 100 µM (100 uM, replicate 2, MM55, read-out: Percentage survival at 100um, 100 uM A): 5.34%; activity at 100 µM (100 uM, replicate 3, MM55, read-out: Percentage survival at 100um, 100 uM A): 9.43%
